How the values were obtained:
FGFR2 = FGFR2 (Homo sapiens (Human), UniProt P21802); assay: FGFR2 Biochemical Caliper Assay
Experimental: Compounds of the present invention were also tested in a FGFR2 Biochemical Caliper Assay. Compounds were prepared in 10 mM DMSO solution and serially diluted into 11 concentrations by 3-fold dilution. […] 5 uL of ATP solution (100 uM) was added to start the reaction and the plate was incubated for 90 minutes, then 70 uL of stopping buffer (0.5M EDTA) was added to terminate the reaction. Each well was analyzed using EZ reader.

SNU16 cells = assay: SNU16 Cancer Cell Line Proliferation Assay; format: cell-based; settings: Homo sapiens; SNU-16 cells
Summary of the method: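 Proliferation read-out: CellTiter Glo chemiluminescence after 96 h compound exposure. Test compounds, serially diluted 3-fold over 11 points from a 10 mM DMSO stock, were added to SNU16 cells plated 24 h earlier at 37 degrees.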

FGFR2, sequence (P21802 22-821): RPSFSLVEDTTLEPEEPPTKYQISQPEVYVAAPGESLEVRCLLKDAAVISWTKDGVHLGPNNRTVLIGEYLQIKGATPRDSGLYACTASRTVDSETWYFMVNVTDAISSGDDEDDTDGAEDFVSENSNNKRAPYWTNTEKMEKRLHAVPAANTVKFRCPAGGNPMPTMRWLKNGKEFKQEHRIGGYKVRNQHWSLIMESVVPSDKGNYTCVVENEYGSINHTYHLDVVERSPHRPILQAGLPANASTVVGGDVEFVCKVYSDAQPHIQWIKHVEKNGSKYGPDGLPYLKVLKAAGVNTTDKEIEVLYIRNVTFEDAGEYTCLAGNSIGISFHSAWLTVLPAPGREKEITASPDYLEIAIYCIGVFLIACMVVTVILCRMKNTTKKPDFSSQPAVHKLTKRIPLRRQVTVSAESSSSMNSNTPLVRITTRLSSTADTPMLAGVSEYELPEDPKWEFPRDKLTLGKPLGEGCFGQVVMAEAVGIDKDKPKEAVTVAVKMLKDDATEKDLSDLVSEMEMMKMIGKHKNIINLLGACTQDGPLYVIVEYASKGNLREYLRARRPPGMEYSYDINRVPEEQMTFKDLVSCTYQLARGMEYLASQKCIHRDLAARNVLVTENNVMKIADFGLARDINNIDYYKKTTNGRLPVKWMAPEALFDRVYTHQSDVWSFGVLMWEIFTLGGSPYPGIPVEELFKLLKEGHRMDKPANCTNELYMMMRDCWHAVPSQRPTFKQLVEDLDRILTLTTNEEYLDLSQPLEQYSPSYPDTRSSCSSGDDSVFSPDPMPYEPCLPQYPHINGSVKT

| SMILES | IC50 (FGFR2) [nM] | IC50 (SNU16 cells) [nM] |
| --- | --- | --- |
| C=C(C)C(=O)Nc1ccc(-c2c(-c3ccc(S(=O)(=O)NC4COC4)cc3)c3c(N)ncnc3n2C)cc1 [Example 301] | 1000 to 100000 | 250 to 1000 |
| C=CC(=O)Nc1ccc(-c2c(C3CCC(C(=O)NC)CC3)c3c(N)ncnc3n2C)cc1 (stereo not shown) [Example 302] | 1000 to 100000 | 250 to 1000 |
| C=C(C)C(=O)Nc1ccc(-c2c(-c3ccc(S(=O)(=O)NCC(C)C)cc3)c3c(N)ncnc3n2C)cc1 [Example 303] | 250 to 1000 | 250 to 1000 |
| C=C(C)C(=O)Nc1ccc(-c2c(-c3ccc(S(=O)(=O)NC4CCCC4O)cc3)c3c(N)ncnc3n2C)cc1 (stereo not shown) [Example 309] | 1000 to 100000 | 250 to 1000 |
| C=C(C)C(=O)Nc1ccc(-c2c(-c3ccc(S(=O)(=O)NCC(C)(C)O)cc3)c3c(N)ncnc3n2C)cc1 [Example 310] | 1000 to 100000 | 250 to 1000 |
| C=C(C)C(=O)Nc1ccc(-c2c(-c3ccc(S(=O)(=O)NC4CCC4)cc3)c3c(N)ncnc3n2C)cc1 [Example 311] | 250 to 1000 | 250 to 1000 |
| C=C(C)C(=O)Nc1ccc(-c2c(-c3ccc(S(=O)(=O)N(C)C4CCCC4)cc3)c3c(N)ncnc3n2C)cc1 [Example 312] | 250 to 1000 | 250 to 1000 |
| C=C(C)C(=O)Nc1ccc(-c2c(-c3ccc(-c4ncco4)nc3)c3c(N)ncnc3n2C)cc1 [Example 313] | 1000 to 100000 | 250 to 1000 |
| C=C(C)C(=O)Nc1ccc(-c2c(-c3ccc(S(=O)(=O)CC4CCCC4)cc3)c3c(N)ncnc3n2C)cc1 [Example 314] | 250 to 1000 | 250 to 1000 |
| C=C(C)C(=O)Nc1ccc(-c2c(-c3ccc(S(=O)(=O)CCC(F)(F)F)cc3)c3c(N)ncnc3n2C)cc1 [Example 315] | 250 to 1000 | 250 to 1000 |
| C=C(C)C(=O)Nc1ccc(-c2c(-c3ccc(S(=O)(=O)N(C)CC(F)(F)F)cc3)c3c(N)ncnc3n2C)cc1 [Example 316] | 250 to 1000 | 250 to 1000 |
| C=C(C)C(=O)Nc1ccc(-c2c(-c3ccc(S(=O)(=O)NC4CCCC4OC)cc3)c3c(N)ncnc3n2C)cc1 (stereo not shown) [Example 318] | 1000 to 100000 | 250 to 1000 |
| C=C(C)C(=O)Nc1ccc(-c2c(-c3ccc(C(=O)NC4CCCC4OC)cc3)c3c(N)ncnc3n2C)cc1 (stereo not shown) [Example 321] | 100 to 250 | 100 to 250 |
| C=C(C)C(=O)Nc1ccc(-c2c(-c3ccc(C(=O)N(C)Cc4ncon4)cc3)c3c(N)ncnc3n2C)cc1 [Example 324] | 1000 to 100000 | 250 to 1000 |
| C=C(C)C(=O)Nc1ccc(-c2c(-c3ccc(C(=C)N[C@H]4CCOC4)cc3)c3c(N)ncnc3n2C)cc1 [Example 335] | 250 to 1000 | 250 to 1000 |
| C=C(C)C(=O)Nc1ccc(-c2c(-c3ccc(C(=O)NCC#N)cc3)c3c(N)ncnc3n2C)cc1 [Example 337] | 250 to 1000 | 250 to 1000 |
| C=C(C)C(=O)Nc1ccc(-c2c(-c3ccc(Oc4ncc(C)cn4)cc3)c3c(N)ncnc3n2C)cc1 [Example 339] | 100 to 250 | ≤ 100 |

| SMILES | IC50 (FGFR2) [nM] | IC50 (SNU16 cells) [nM] |
| --- | --- | --- |
| C=C(C)C(=O)Nc1ccc(-c2c(-c3ccc(Oc4cccc(C)n4)cc3)c3c(N)ncnc3n2C)cc1OC [Example 344] | 100 to 250 | ≤ 100 |
| C=C(C)C(=O)Nc1ccc(-c2c(-c3ccc(C(=O)NC4C5COCC54)cc3)c3c(N)ncnc3n2C)cc1 (stereo not shown) [Example 352] | 250 to 1000 | 250 to 1000 |
| C=C(C)C(=O)Nc1ccc(-c2c(-c3ccc(C(=O)N4CCC[C@H](OC)C4)cc3)c3c(N)ncnc3n2C)cc1 [Example 353] | 1000 to 100000 | 250 to 1000 |
| C=C(C)C(=O)Nc1ccc(-c2c(-c3ccc(C(=O)N4CCCC4)cc3)c3c(N)ncnc3n2C)cc1OC [Example 354] | 1000 to 100000 | 250 to 1000 |
| C=C(C)C(=O)Nc1ccc(-c2c(-c3ccc(C(=O)N4CCC[C@@H]4COC)cc3)c3c(N)ncnc3n2C)cc1 [Example 361] | 250 to 1000 | 250 to 1000 |
| C=C(C)C(=O)Nc1ccc(-c2c(-c3ccc(C(=O)NC4(COC)CCC4)cc3)c3c(N)ncnc3n2C)cc1 [Example 365] | < 100 | ≤ 100 |
| C=C(C)C(=O)Nc1ccc(-c2c(-c3ccc(C(=O)N(C)CC(C)(C)O)cc3)c3c(N)ncnc3n2C)cc1 [Example 368] | 250 to 1000 | 250 to 1000 |
| C=C(C)C(=O)Nc1ccc(-c2c(-c3ccc(C(=O)N4CCCCC4COC)cc3)c3c(N)ncnc3n2C)cc1 (stereo not shown) [Example 369] | < 100 | ≤ 100 |
| C=C(C)C(=O)Nc1ccc(-c2c(-c3ccc(Oc4cccc(C)n4)cc3)c3c(N)ncnc3n2CCOC)cc1 [Example 370] | < 100 | ≤ 100 |
| C=C(C)C(=O)Nc1ccc(-c2c(-c3ccc(C(=O)NC(CF)CF)cc3)c3c(N)ncnc3n2C)cc1 [Example 371] | < 100 | ≤ 100 |
| C=C(C)C(=O)Nc1ccc(-c2c(-c3ccc(C(=O)NCC4(CO)CC4)cc3)c3c(N)ncnc3n2C)cc1 [Example 372] | < 100 | 250 to 1000 |
| C=C(C)C(=O)Nc1ccc(-c2c(-c3ccc(C(=O)NCC(C)(C)C#N)cc3)c3c(N)ncnc3n2C)cc1 [Example 373] | < 100 | ≤ 100 |
| C=C(C)C(=O)Nc1ccc(-c2c(-c3ccc(C(=O)N(C)Cc4nnc(C)o4)cc3)c3c(N)ncnc3n2C)cc1 [Example 374] | 1000 to 100000 | 250 to 1000 |
| C=C(C)C(=O)Nc1ccc(-c2c(-c3ccc(C(=O)N(C)Cc4noc(C)n4)cc3)c3c(N)ncnc3n2C)cc1 [Example 375] | 250 to 1000 | 250 to 1000 |
| C=C(C)C(=O)Nc1ccc(-c2c(-c3ccc(C(=O)NCC4CCCO4)cc3)c3c(N)ncnc3n2C)cc1 (stereo not shown) [Example 376] | < 100 | ≤ 100 |
| C=C(C)C(=O)Nc1ccc(-c2c(-c3ccc(C(=O)NCC4CCCN4C)cc3)c3c(N)ncnc3n2C)cc1 (stereo not shown) [Example 377] | 250 to 1000 | 250 to 1000 |
| C=C(C)C(=O)Nc1ccc(-c2c(-c3ccc(Oc4cccc(C)n4)c(OCCOC)c3)c3c(N)ncnc3n2C)cc1 [Example 378] | 1000 to 100000 | 250 to 1000 |

Other lines, results leading:

| IC50 (FGFR2) [nM] | IC50 (SNU16 cells) [nM] | SMILES |
| --- | --- | --- |
| < 100 | ≤ 100 | C=C(C)C(=O)Nc1ccc(-c2c(-c3ccc(C(=O)N4CC5CCC(C5)C4)cc3)c3c(N)ncnc3n2C)cc1 [Example 299] |
| < 100 | ≤ 100 | C=C(C)C(=O)Nc1ccc(-c2c(-c3ccc(C(=O)N[C@@H]4CCOC4)cc3)c3c(N)ncnc3n2C)cc1 [Example 300] |
| < 100 | ≤ 100 | C=C(C)C(=O)Nc1ccc(-c2c(-c3ccc(C(=O)N(C)CC(F)(F)F)cc3)c3c(N)ncnc3n2C)cc1 [Example 304] |
| < 100 | ≤ 100 | C=C(C)C(=O)Nc1ccc(-c2c(-c3ccc(C(=O)NCC(F)F)cc3)c3c(N)ncnc3n2C)cc1 [Example 305] |
| < 100 | ≤ 100 | C=C(C)C(=O)Nc1ccc(-c2c(-c3ccc(C(=O)NCC(C)(C)OC)cc3)c3c(N)ncnc3n2C)cc1 [Example 306] |
| < 100 | ≤ 100 | C=C(C)C(=O)Nc1ccc(-c2c(-c3ccc(C(=O)NCC(C)C)cc3)c3c(N)ncnc3n2C)cc1 [Example 307] |
| < 100 | 100 to 250 | C=C(C)C(=O)Nc1ccc(-c2c(-c3ccc(C(=O)NC4CCCC4O)cc3)c3c(N)ncnc3n2C)cc1 (stereo not shown) [Example 308] |
| < 100 | ≤ 100 | C=C(C)C(=O)Nc1ccc(-c2c(-c3ccc(C(=O)NCC4CC4)cc3)c3c(N)ncnc3n2C)cc1 [Example 320] |
| < 100 | 100 to 250 | C=C(C)C(=O)Nc1ccc(-c2c(-c3ccc(C(=O)NC4CCCOC4)cc3)c3c(N)ncnc3n2C)cc1 (stereo not shown) [Example 327] |
| < 100 | 250 to 1000 | C=C(C)C(=O)Nc1ccc(-c2c(-c3ccc(C(=O)N[C@@H](CO)CC4CC4)cc3)c3c(N)ncnc3n2C)cc1 [Example 329] |
| < 100 | ≤ 100 | C=C(C)C(=O)Nc1ccc(-c2c(-c3ccc(C(=O)NCC(C)(C)CO)cc3)c3c(N)ncnc3n2C)cc1 [Example 331] |
| < 100 | 250 to 1000 | C=C(C)C(=O)Nc1ccc(-c2c(-c3ccc(C(=O)NCC(O)C(F)(F)F)cc3)c3c(N)ncnc3n2C)cc1 (stereo not shown) [Example 332] |
| < 100 | ≤ 100 | C=C(C)C(=O)Nc1ccc(-c2c(-c3ccc(C(=O)NCC4(F)COC4)cc3)c3c(N)ncnc3n2C)cc1 [Example 338] |
| < 100 | ≤ 100 | C=C(C)C(=O)Nc1ccc(-c2c(-c3ccc(Oc4cccc(C)n4)cc3)c3c(N)ncnc3n2C)cc1F [Example 340] |
| < 100 | ≤ 100 | C=C(C)C(=O)Nc1ccc(-c2c(-c3ccc(Oc4cccc(C)n4)cc3)c3c(N)ncnc3n2C)c(F)c1 [Example 341] |
| < 100 | ≤ 100 | C=C(C)C(=O)Nc1ccc(-c2c(-c3ccc(Oc4cccc(OC)n4)cc3)c3c(N)ncnc3n2C)cc1 [Example 342] |
| < 100 | ≤ 100 | C=C(C)C(=O)Nc1ccc(-c2c(-c3ccc(C(=O)N[C@@H](COC)C4CC4)cc3)c3c(N)ncnc3n2C)cc1 [Example 346] |
| < 100 | 250 to 1000 | C=C(C)C(=O)Nc1ccc(-c2c(-c3ccc(C(=O)NCC4CCO4)cc3)c3c(N)ncnc3n2C)cc1 (stereo not shown) [Example 348] |
| < 100 | ≤ 100 | C=C(C)C(=O)Nc1ccc(-c2c(-c3ccc(C(=O)NCC4(OC)CCC4)cc3)c3c(N)ncnc3n2C)cc1 [Example 351] |
| < 100 | ≤ 100 | C=C(C)C(=O)Nc1ccc(-c2c(-c3ccc(C(=O)N4CCCC4)cc3)c3c(N)ncnc3n2C)c(F)c1 [Example 355] |
| < 100 | ≤ 100 | C=C(C)C(=O)Nc1ccc(-c2c(-c3ccc(C(=O)N4CCC[C@H]4COC)cc3)c3c(N)ncnc3n2C)cc1 [Example 357] |
| < 100 | 250 to 1000 | C=C(C)C(=O)Nc1ccc(-c2c(-c3ccc(C(=O)NCC4CCOC4)cc3)c3c(N)ncnc3n2C)cc1 (stereo not shown) [Example 362] |
